Patent publication US8501792B2, “Treating cancer with desthiazolyl ritonavir” (priority 2008, dated 2013)
Read-outs that look alike come from different tables or passages of the source.

How the values were obtained:
[1] = test system: Hsp90; experiment: 70 kDa Hsp90 fragment after treatment; type: cell-based; details: data not shown
[2] = test system: SKBR3 (ER-/Her2+); experiment: MTT proliferation assay, SKBR3; type: cell-based; details: Homo sapiens, SK-BR-3, Example 6, MTT after 48 h
Experimental: M1 inhibition of proliferation of MCF7 (ER+), T47D (ER+), MDA-MB-231 (triple negative), SKBR3 (ER−/Her2+), and the non-transformed mammary line MCF10A were studied. Cells (n=2000/well) were seeded in 96 well plates with drug or vehicle (DMSO) on D1 and after 48 h the cell number was determined by MTT assay.

[3] = test system: MDA-MB-231; experiment: Western blot protein depletion, MDA-MB-231 (Example 4); type: cell-based
Experimental: (§1) Breast cancer cell lines MDA-MB-231, T47D and SKBR3 were used to study depletion of Hsp90 by M1 and ritonavir. Cells were incubated for 48 hours with 1) ritonavir (R) at its IC50 (20 μM for T47D and 40 μM for MDA-MB-231); 2) M1 at ritonavir's IC50; or DMSO (control). Cell extracts were made according to the method of Srirangam et al., Clin Cancer Res. 2006 Mar. 15; 12(6):1883-96. Briefly, nearly confluent cell monolayers were treated with drug or vehicle (DMSO) for 24 or 48 h. Cells were washed with PBS on ice and scraped in a RIPA buffer containing protease inhibitors including MG-132 and phosphatase inhibitors. The cell lysate protein content was determined by μBCA and equal amounts of protein were loaded per lane. Gel electrophoresis by SDS PAGE was performed with equal protein loading per lane (usually 30 μg) and the separated proteins were transferred to 0.45 μm nitrocellulose filters. The transfer was verified by Ponceau stain of the nitrocellulose filters. The filters were probed by chemiluminescent blotting and then exposed to X-ray film. The signal from the protein of interest was normalized to the GAPDH signal. Student's t-test was used to determine the significance of differences.

[4] = test system: MCF7-her2 line; experiment: MTT proliferation assay, MCF7-her2 line; type: cell-based; details: MCF7-her2 line over-expressing her2; MTT after 48 h
[5] = test system: MDA-MB-231 xenograft; experiment: Murine breast cancer xenograft; type: in vivo, female nude mice (nu-/nu-)
Experimental: (§2) Six-8 weeks old female nude mice (nu^−/nu^−) (Charles River Laboratories International, Inc., MA) were injected into a right mammary fat pad with 1×10^6 log-phase MDA-MB-231. Mice were monitored bi-weekly for weight and tumor growth. When tumors reached a volume of approximately 30-40 mm^3 (calculated according to the formula: volume (mm^3)=(length)(width)^2/2), mice were randomized into three groups (each group n=10). One group of mice was injected daily i.p. with ritonavir (20 mg/Kg in 100 μl of ethanol-Tween 80), the second with M1 (20 mg/Kg in 100 μl of ethanol-Tween 80), and the third with vehicle only (100 μl of ethanol-Tween 80). […] Mice were weighted and their tumors were measured twice a week for the entire duration of the treatment (42 days).
One hour after the last drug/vehicle injection plasma, tumors, lungs, liver, tongue, and skin were collected from each mouse. Plasma was stored at −80° C.; half of the tissues were treated to prepare paraffin blocks, and half were frozen in liquid nitrogen and stored at −80° C.

[6] = Tolerability in nude mice (MTD, weight); type: in vivo; details: for MTD: female, nude (nu-/nu-), mouse, in vivo
Experimental: as §2

[7] = test system: HIV; details: MT-4 cell based assay; Denissen et al. 1997; cited from earlier work
[8] = test system: T47D cell line; experiment: Induction of reactive oxygen species, flow cytometry; type: cell-based; details: 30 μM, 24 hours, FIG. 3
Experimental: Production of ROS can be analyzed using flow cytometry. For example, induction of ROS, including peroxide and superoxide, can be studied in cancer cell line. Cells can be seeded in 6 well plates (˜80,000 cells/well) using the appropriate medium, and exposed to a drug for 24 hours. Subsequently, the medium can be removed from the wells and the cells can then be exposed to DHE (2 μM in PBS) or Carboxy-H2-DCFDA (10 μM in PBS) for 30 minutes. Cells can then be trypsinized, washed two times with PBS and analyzed by flow cytometry. Additional cells can be exposed to H2O2 (250 μM) for 2 hours as a positive control for ROS production. See Example 3.
Induction of Reactive Oxygen Species (ROS), including peroxide and superoxide, were studied in the T47D cell line. Cells were seeded in 6 well plates (˜80,000 cells/well) using the appropriate medium, (DMEM with 10% FBS, 1% L-Glu, 1% Sodium Piruvate, and 1% Pen-strep) and exposed to ritonavir (30 μM) and M1 (30 μM) for 24 hours. Subsequently, the medium was removed from the wells and the cells were exposed to DHE (2 μM in PBS) or Carboxy-H2-DCFDA (10 μM in PBS) for 30 minutes. Cells were then trypsinized, washed two times with PBS and analyzed by flow cytometry. Additional cells were exposed to H2O2 (250 μM) for 2 hours as a positive control for ROS production.

[9] = test system: ER+ lines; experiment: MTT proliferation assay, ER+ lines (IC90); type: cell-based; details: difference to ritonavir, read-out: IC90 values, amount less than ritonavir
Experimental: M1 inhibition of proliferation of MCF7, T47D and MDA-MB-231 cell lines was studied. Cells (n=2000/well) were seeded in 96 well plates with drug or vehicle (DMSO) on D1 and after 48 h the cell number was determined by MTT assay. Each assay was performed with 8 measurements for each data point (See FIG. 1, wherein graph A corresponds to MCF7, graph B corresponds to T47D, and graph C corresponds to MDA-MB-231).

[10] = test system: T47D; experiment: Western blot protein depletion, T47D (Example 4); type: cell-based
Experimental: as §1

[11] = test system: SKBR3 (ER-/Her2+); experiment: Annexin V-FITC/PI apoptosis flow cytometry, SKBR3; type: cell-based
Experimental: Induction of apoptosis was studied in a MCF7 breast cancer cell line. Apoptotic cells were detected using an Annexin V-FITC/PI apoptosis detection kit (Oncagene, Boston, Mass.). After plating at 5×10^5 in a 100-mm plate, the cells were grown for 48 hours in complete medium in presence of M1, ritonavir, or vehicle (DMSO). The culture and drug exposure conditions for the apoptosis assays were done across a range of 5 to 60 μmol/L M1 and ritonavir. Cells were harvested by trypsin treatment, washed with complete medium to neutralize the trypsin, and stained with PI and Annexin V-FITC. A total of 1×10^4 events were analyzed per assay by FACScan analysis using CellQuest software (Becton Dickinson). Replicate assays were done to confirm the results.
A similar study was performed using T47D (ER+), MDA-MB-231 (triple negative) and SKBR3 (ER−/Her2+) cell lines were performed as above.

CC(C)c1nc(CN(C)C(=O)NC(C(=O)NC(Cc2ccccc2)CC(O)C(N)Cc2ccccc2)C(C)C)cs1 (centres unmarked) [M1, desthiazolyl ritonavir]
major 70 kDa Hsp90 fragment [1]: observed
IC50 [2]: 12 µM
reducing Hsp90 levels ([3]; 48 hours, at ritonavir's IC50 (40 μM)): more potent than ritonavir
G1/S regulatory protein Cyclin D1 ([3]; P<0.05): reduced
reducing total Akt, phospho-Akt, GSK3beta, c-src, and survivin ([3]; versus ritonavir, P<0.05): more potent
IC50 [4]: 25 µM
tumor growth compared to mice treated with only the vehicle ([5]; 20 mg/Kg daily i.p., 42 days, FIG. 5A): delayed tumor growth
tumor growth compared to ritonavir ([5]; 20 mg/Kg daily i.p., 42 days, FIG. 5B): statistically significant delay in tumor growth
reduction of the average tumor size ([5]; at MTD (20 mg/Kg), 42 days of follow-up, P<0.05): 2 -fold
MTD [6]: 20 mg/kg
inhibition of HIV replication [7]: does not inhibit HIV replication
ROS production [8]: induces ROS production
IC90 [9]: > 30 µM
reducing Hsp90 levels ([10]; 48 hours, at ritonavir's IC50 (20 μM)): more potent than ritonavir
G1/S regulatory protein Cyclin D1 ([10]; P<0.05): reduced
reducing ER alpha ([10]; versus ritonavir, P<0.05): more potent
reducing total Akt, phospho-Akt, GSK3beta, c-src, and survivin ([10]; versus ritonavir, P<0.05): more potent
fraction of apoptotic cells [11]: 78%

CC(C)c1nc(CN(C)C(=O)N[C@H](C(=O)N[C@@H](Cc2ccccc2)C[C@H](O)[C@H](Cc2ccccc2)NC(=O)OCc2cncs2)C(C)C)cs1 [ritonavir]
70 kDa Hsp90 fragment, less abundant than with M1 [1]: 3 -fold
IC50 [2]: 33 µM
G1/S regulatory protein Cyclin D1 ([3]; P<0.05): reduced
IC50 [4]: 25 µM
effect on MDA-MB-231 xenograft ([5]; at its MTD (40 mg/Kg)): inhibits
effect on MDA-MB-231 xenograft ([5]; half its MTD (20 mg/Kg)): ineffective
Animal weight loss ([6]; 20 mg/Kg daily i.p., 42 days, FIG. 5C): did not occur
MTD ([6]; nude mice, read-out: maximum tolerated dose (MTD)): 40 mg/kg
ROS production [8]: does not
G1/S regulatory protein Cyclin D1 ([10]; P<0.05): reduced
fraction of apoptotic cells [11]: 11%
